The target in the assay is ROCK2 (human) (UniProt O75116). In words: Inhibition of ROCK2 Kinase Activity.
ROCK2 (human), sequence (O75116 whole entry, looked up): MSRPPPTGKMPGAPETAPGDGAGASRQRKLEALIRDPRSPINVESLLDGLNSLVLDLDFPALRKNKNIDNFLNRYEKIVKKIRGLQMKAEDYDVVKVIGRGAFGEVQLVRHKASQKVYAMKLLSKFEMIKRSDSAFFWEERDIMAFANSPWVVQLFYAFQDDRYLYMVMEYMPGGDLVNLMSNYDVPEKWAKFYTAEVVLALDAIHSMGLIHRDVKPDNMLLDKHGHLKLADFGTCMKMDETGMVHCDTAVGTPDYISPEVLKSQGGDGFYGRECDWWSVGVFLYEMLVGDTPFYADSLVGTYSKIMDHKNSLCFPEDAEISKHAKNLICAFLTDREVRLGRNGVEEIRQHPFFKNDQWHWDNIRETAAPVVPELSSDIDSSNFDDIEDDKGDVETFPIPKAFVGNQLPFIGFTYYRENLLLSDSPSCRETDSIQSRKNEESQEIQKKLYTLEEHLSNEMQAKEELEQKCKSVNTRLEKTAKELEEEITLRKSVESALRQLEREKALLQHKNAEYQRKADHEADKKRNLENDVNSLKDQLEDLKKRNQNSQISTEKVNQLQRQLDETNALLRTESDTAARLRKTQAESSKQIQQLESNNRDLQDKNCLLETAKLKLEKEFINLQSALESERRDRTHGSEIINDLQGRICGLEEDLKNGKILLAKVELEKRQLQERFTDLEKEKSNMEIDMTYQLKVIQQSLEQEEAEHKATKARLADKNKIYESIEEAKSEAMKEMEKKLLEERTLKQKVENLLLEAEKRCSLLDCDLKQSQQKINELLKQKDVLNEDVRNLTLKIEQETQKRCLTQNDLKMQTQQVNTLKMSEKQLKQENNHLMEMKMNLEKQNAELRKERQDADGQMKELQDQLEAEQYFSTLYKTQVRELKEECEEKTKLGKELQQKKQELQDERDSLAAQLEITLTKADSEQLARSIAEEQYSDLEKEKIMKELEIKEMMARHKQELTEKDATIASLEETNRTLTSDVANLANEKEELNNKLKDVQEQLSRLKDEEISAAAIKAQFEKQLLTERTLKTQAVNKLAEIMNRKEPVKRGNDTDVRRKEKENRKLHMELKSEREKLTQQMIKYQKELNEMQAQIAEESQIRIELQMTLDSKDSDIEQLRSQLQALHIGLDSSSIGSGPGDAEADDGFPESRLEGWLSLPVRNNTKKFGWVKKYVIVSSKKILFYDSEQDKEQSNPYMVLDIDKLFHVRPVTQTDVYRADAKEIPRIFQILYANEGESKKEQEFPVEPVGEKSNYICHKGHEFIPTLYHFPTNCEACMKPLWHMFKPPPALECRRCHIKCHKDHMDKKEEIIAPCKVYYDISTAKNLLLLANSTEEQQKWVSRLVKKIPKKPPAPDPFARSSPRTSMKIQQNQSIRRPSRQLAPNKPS

Molecule `O=C(NCc1nc(-c2ccncc2)n[nH]1)c1c(F)cccc1Cl` yielded an IC50 of more than 5 µM.
The result for `O=C(NCc1nc(-c2ccncc2)n[nH]1)c1ccc(O)cc1O` reads not above 5 µM.
The value for `O=C(NCc1nc(-c2ccncc2)n[nH]1)c1n[nH]c2ccccc12` was not above 5 µM.
The value for `c1ccc2c(NCc3nc(-c4ccncc4)n[nH]3)n[nH]c2c1` was more than 5 µM; that for `CC(C)(C)OC(=O)NCCCC(NC(=O)c1ccc(O)cc1O)c1nc(-c2ccncc2)n[nH]1` (configuration not stated) was not above 5 µM; that for `O=C(NCc1nc(-c2ccncc2)n[nH]1)c1cc(F)ccc1[N+](=O)[O-]` was more than 5 µM.
Molecule `O=C(NCc1nc(-c2c[nH]c3ncccc23)n[nH]1)c1ccc(Cl)nc1` gave an IC50 of more than 5 µM.
The value for `O=C(NCc1nc(-c2c[nH]c3ncccc23)n[nH]1)c1ccc(Cl)cc1[N+](=O)[O-]` was more than 5 µM; that for `Cc1cccc(C(=O)NCc2nc(-c3ccncc3)n[nH]2)c1O` was not above 5 µM.
The molecule `O=C(NCc1nc(-c2ccncc2)n[nH]1)C1=CCCC1` came in with a 50% inhibitory concentration (IC50) of more than 5 µM.
The value for `COc1cc(OC)c(C(=O)NCc2nc(-c3ccncc3)n[nH]2)cc1OC` was more than 5 µM.
The value for `O=C(NCc1nc(-c2c[nH]c3ncccc23)n[nH]1)c1ccccn1` was more than 5 µM; that for `CC(=O)Oc1ccc(C(=O)NCc2nc(-c3ccncc3)n[nH]2)cc1` was not above 5 µM.
The value for `O=C(NCc1nc(-c2c[nH]c3ncccc23)n[nH]1)c1ccccc1O` was more than 5 µM.
`CC(C)(C)OC(=O)NCC(=O)NCc1nc(-c2ccncc2)n[nH]1` registered an IC50 of more than 5 µM.
The value for `O=C(NCc1nc(-c2ccncc2)n[nH]1)c1ccncc1Cl` was more than 5 µM; that for `O=C(NCc1nc(-c2ccncc2)n[nH]1)c1ccc(F)cc1` was more than 5 µM.
Turning to `O=C(CC1Cc2ccccc2C1)NCc1nc(-c2ccncc2)n[nH]1`, the IC50 is more than 5 µM.
The value for `O=C(NCc1nc(-c2ccncc2)n[nH]1)C1CCc2ccccc21` (configuration not stated) was more than 5 µM; that for `Cc1ccc(C(=O)NCc2nc(-c3c[nH]c4ncccc34)n[nH]2)c(C)c1` was more than 5 µM.
The value for `O=C(NCc1nc(-c2ccncc2)n[nH]1)C(Cl)(Cl)Cl` was more than 5 µM.
Molecule `O=C(NCc1nc(-c2ccncc2)n[nH]1)c1ccc(-c2ccc(O)cc2)cc1` came in with a half-maximal inhibitory concentration (IC50) of more than 5 µM.
`Cc1cccc(C(=O)NCc2nc(-c3ccncc3)n[nH]2)c1[N+](=O)[O-]` returned an IC50 of more than 5 µM.
In turn, `Cc1ccc(C(=O)NCc2nc(-c3ccncc3)n[nH]2)cc1` gave a concentration for half-maximal inhibition (IC50) of more than 5 µM.
In the case of `COc1ccc(O)c(C(=O)NCc2nc(-c3c[nH]c4ncccc34)n[nH]2)c1`, the IC50 was more than 5 µM.
In turn, `CCCCCCCC(=O)NCc1nc(-c2c[nH]c3ncccc23)n[nH]1` returned an IC50 of more than 5 µM.
In the case of `O=C(NCc1nc(-c2ccncc2)n[nH]1)c1ccccn1`, the IC50 is more than 5 µM.
The value for `O=C(NCc1nc(-c2c[nH]c3ncccc23)n[nH]1)c1ccccc1` was more than 5 µM.
The result for `Cc1ccsc1C(=O)NCc1nc(-c2ccncc2)n[nH]1` reads not above 5 µM.
The result for `COc1ccc(C(=O)NCc2nc(-c3c[nH]c4ncccc34)n[nH]2)c(OC)c1OC` reads more than 5 µM; that for `COc1cc(C(=O)NCc2nc(-c3c[nH]c4ncccc34)n[nH]2)cc(OC)c1OC`, more than 5 µM; that for `O=C(NCc1nc(-c2c[nH]c3ncccc23)n[nH]1)c1cc(Cl)ccn1`, more than 5 µM.
`O=C(NCc1nc(-c2c[nH]c3ncccc23)n[nH]1)c1ccc([N+](=O)[O-])c(O)c1` came in with an IC50 of more than 5 µM.
The value for `O=C(NCc1nc(-c2ccncc2)n[nH]1)c1cnc[nH]1` was more than 5 µM; that for `Cc1cc(C(=O)NCc2nc(-c3ccncc3)n[nH]2)ccc1Br` was more than 5 µM; that for `CC(C)c1cccc(C(=O)NCc2nc(-c3ccncc3)n[nH]2)c1O` was not above 5 µM.
The result for `O=C(C=Cc1ccccc1C(F)(F)F)NCc1nc(-c2c[nH]c3ncccc23)n[nH]1` reads more than 5 µM; that for `O=C(NCc1nc(-c2c[nH]c3ncccc23)n[nH]1)c1ncc[nH]1`, more than 5 µM.
Turning to `O=C(NCc1nc(-c2ccncc2)n[nH]1)c1cccc2c1OCC2`, the IC50 is more than 5 µM.
The result for `O=C(NCc1nc(-c2ccncc2)n[nH]1)c1cscn1` reads more than 5 µM.
`O=C(NCc1nc(-c2ccncc2)n[nH]1)c1ccnc(Cl)c1` had a half-inhibitory concentration (IC50) of more than 5 µM.
The result for `CC(C)Cc1ccc(C(C)C(=O)NCc2nc(-c3c[nH]c4ncccc34)n[nH]2)cc1` (configuration not stated) reads more than 5 µM; that for `CCc1cccc(C(=O)NCc2nc(-c3ccncc3)n[nH]2)c1O`, not above 5 µM.
`Cc1nc(Br)sc1C(=O)NCc1nc(-c2c[nH]c3ncccc23)n[nH]1`: the IC50 was more than 5 µM.
In turn, `Cc1ccc(C(=O)NCc2nc(-c3ccncc3)n[nH]2)s1` gave an IC50 not above 5 µM.
For the molecule `O=C(C=Cc1ccccc1O)NCc1nc(-c2ccncc2)n[nH]1`, the half-inhibitory concentration (IC50) was more than 5 µM.
`O=C(NCc1nc(-c2ccncc2)n[nH]1)c1ccc(CO)cc1` had an IC50 not above 5 µM.
With `COc1cc(C(=O)NCc2nc(-c3ccncc3)n[nH]2)cc(Cl)n1`, the IC50 was more than 5 µM.
Molecule `COC1=CC(OC)(C(=O)NCc2nc(-c3ccncc3)n[nH]2)C=C1` (configuration not stated) yielded an IC50 of more than 5 µM.
On to `O=C(NCc1nc(-c2ccncc2)n[nH]1)c1cc2ccccc2s1`, for which the IC50 was not above 5 µM.
Consider `O=C(NCc1nc(-c2ccncc2)n[nH]1)c1ccccc1OCc1ccccc1`, for which the half-maximal inhibitory concentration (IC50) is more than 5 µM.
The value for `O=C(NCc1c[nH]c(-c2ccncc2)n1)c1ccc(O)cc1O` was not above 5 µM; that for `Cc1ccccc1CC(=O)NCc1nc(-c2c[nH]c3ncccc23)n[nH]1` was more than 5 µM; that for `Cc1ccc(C(=O)NCc2nc(-c3ccncc3)n[nH]2)cc1Br` was more than 5 µM.
The result for `O=C(NCc1nc(-c2ccncc2)n[nH]1)c1ccc([N+](=O)[O-])c(O)c1` reads not above 5 µM; that for `O=C(Cc1ccc(O)c(Cl)c1)NCc1nc(-c2ccncc2)n[nH]1`, more than 5 µM; that for `O=C(NCc1nc(-c2ccncc2)n[nH]1)c1ccc2cccc(O)c2n1`, more than 5 µM.
`O=C(NCc1nc(-c2c[nH]c3ncccc23)n[nH]1)c1cc2ccccc2s1` gave an IC50 of more than 5 µM.
Turning to `Cc1cc(C(=O)NCc2nc(-c3c[nH]c4ncccc34)n[nH]2)cc(Cl)n1`, the IC50 is more than 5 µM.
For `O=C(NCc1nc(-c2c[nH]c3ncccc23)n[nH]1)c1ccncc1Cl`, the IC50 was more than 5 µM.
The result for `O=C(NCc1nc(-c2c[nH]c3ncccc23)n[nH]1)c1cccc(Br)n1` reads more than 5 µM; that for `COc1ccc2cc(C(C)C(=O)NCc3nc(-c4ccncc4)n[nH]3)ccc2c1` (configuration not stated), more than 5 µM; that for `Cc1cccc(C(=O)NCc2cc(-c3ccncc3)n[nH]2)c1O`, not above 5 µM.
The value for `CC(=O)c1ccc(C(=O)NCc2nc(-c3c[nH]c4ncccc34)n[nH]2)cc1` was not above 5 µM.
As to `COc1ccc2cc(C(C)C(=O)NCc3nc(-c4c[nH]c5ncccc45)n[nH]3)ccc2c1` (configuration not stated), the IC50 is more than 5 µM.
The value for `O=C(NCc1nc(-c2ccncc2)n[nH]1)c1ccc(Cl)c([N+](=O)[O-])c1` was more than 5 µM.
With `O=C(C=Cc1ccccc1Cl)NCc1nc(-c2c[nH]c3ncccc23)n[nH]1`, the IC50 is more than 5 µM.
Consider `O=C(C=Cc1ccccc1)NCc1nc(-c2ccncc2)n[nH]1`, for which the IC50 was more than 5 µM.
As to `CC(C)(C)OC(=O)NC(Cc1ccccn1)C(=O)NCc1nc(-c2ccncc2)n[nH]1` (configuration not stated), the IC50 is more than 5 µM.
`COc1ccccc1C=CC(=O)NCc1nc(-c2ccncc2)n[nH]1` had a half-inhibitory concentration (IC50) of more than 5 µM.
As for `CC(=O)Oc1ccc(C(=O)NCc2nc(-c3c[nH]c4ncccc34)n[nH]2)cc1`, the half-inhibitory concentration (IC50) was not above 5 µM.
The value for `O=C(CCc1nc(-c2ccncc2)n[nH]1)c1ccc(O)cc1` was not above 5 µM.
The value for `O=C(NCc1nc(-c2ccncc2)n[nH]1)c1ccc(Cl)cc1Cl` was more than 5 µM; that for `CC(C(=O)NCc1nc(-c2ccncc2)n[nH]1)c1ccc(O)cc1` (configuration not stated) was more than 5 µM; that for `COc1ccc(C(=O)NCc2nc(-c3ccncc3)n[nH]2)cc1` was not above 5 µM.
The result for `O=C(NCc1nc(-c2c[nH]c3ncccc23)n[nH]1)c1cc(F)ccc1[N+](=O)[O-]` reads more than 5 µM; that for `O=C(NCc1nc(-c2c[nH]c3ncccc23)n[nH]1)c1cc(F)c(F)cc1[N+](=O)[O-]`, more than 5 µM; that for `CC(C)(C)OC(=O)N1CCNC(C(=O)NCc2nc(-c3ccncc3)n[nH]2)C1` (configuration not stated), more than 5 µM.
Consider `O=C(NCc1nc(-c2c[nH]c3ncccc23)n[nH]1)c1cc(Cl)ccc1[N+](=O)[O-]`, for which the IC50 was more than 5 µM.
The result for `O=C(NCc1nc(-c2c[nH]c3ncccc23)n[nH]1)c1cccnc1` reads more than 5 µM.
The value for `CC(C)(C)c1ccc(C(=O)NCc2nc(-c3ccncc3)n[nH]2)cc1` was more than 5 µM; that for `CC(=O)c1cccc(C(=O)NCc2nc(-c3ccncc3)n[nH]2)c1` was more than 5 µM.
The value for `COc1cccc(C(=O)NCc2nc(-c3ccncc3)no2)c1` was more than 5 µM; that for `O=C(NCc1nc(-c2ccncc2)n[nH]1)C1CCc2ccccc2C1` (configuration not stated) was more than 5 µM; that for `NC1CCN(C(=O)Cc2nc(-c3ccncc3)n[nH]2)C1` (configuration not stated) was more than 5 µM.
In turn, `N#Cc1ccc(C(=O)NCc2nc(-c3c[nH]c4ncccc34)n[nH]2)cc1` came in with an IC50 of more than 5 µM.
Regarding `Cc1ccccc1OCC(=O)NCc1nc(-c2ccncc2)n[nH]1`, the IC50 was more than 5 µM.
The result for `CCCc1ccc(C(=O)NCc2nc(-c3ccncc3)n[nH]2)cc1` reads more than 5 µM.
The result for `N#Cc1cccc(C(=O)NCc2nc(-c3ccncc3)n[nH]2)c1` reads more than 5 µM; that for `Cc1ccc(O)c(C(=O)NCc2nc(-c3c[nH]c4ncccc34)n[nH]2)c1`, more than 5 µM; that for `O=C(NCc1nc(-c2ccncc2)n[nH]1)c1csc2ccccc12`, more than 5 µM.
`O=C(NCc1nc(-c2c[nH]c3ncccc23)n[nH]1)c1cc(O)c(O)c(O)c1` came in with an IC50 of more than 5 µM.
The value for `O=C(NCc1nc(-c2c[nH]c3ncccc23)n[nH]1)c1ccc(F)cc1F` was more than 5 µM.
The value for `Cc1cc(C(=O)NCc2nc(-c3ccncc3)n[nH]2)ccc1O` was not above 5 µM; that for `CC(C)(C)OC(=O)N1CC(O)CC1C(=O)NCc1nc(-c2c[nH]c3ncccc23)n[nH]1` (configuration not stated) was more than 5 µM.
With `O=C(NCc1nc(-c2ccncc2)n[nH]1)c1cccc(Cl)c1Cl`, the IC50 is more than 5 µM.
In the case of `CCCCc1ccc(C(=O)NCc2nc(-c3ccncc3)n[nH]2)cc1`, the IC50 was more than 5 µM.

These data come from the Kinase Knowledgebase extract (Sharma et al. 2016).
